Reference: patent publication US4596675A, “Novel thiopeptolide substrates for vertebrate collagenase” (Monsanto Company, priority 1985, dated 1986)
Non-standard residues stand in square brackets, D forms with d. Residues, ends and D or L forms follow the SMILES beside them. *: point of attachment. Dnp = O=[N+]([O-])c1ccc(*)c([N+](=O)[O-])c1

What follows are compounds tested against T1, collagenase (Homo sapiens, UniProt P03956) (assay: Rate of hydrolysis of substrates by collagenase, assayed by HPLC). Conditions: Comparison of Substrate; assayed by HPLC (no chromophore).
T1 construct: endogenous in cells; host or cells: normal human skin fibroblasts (culture medium)
T1 sequence (P03956 100-469): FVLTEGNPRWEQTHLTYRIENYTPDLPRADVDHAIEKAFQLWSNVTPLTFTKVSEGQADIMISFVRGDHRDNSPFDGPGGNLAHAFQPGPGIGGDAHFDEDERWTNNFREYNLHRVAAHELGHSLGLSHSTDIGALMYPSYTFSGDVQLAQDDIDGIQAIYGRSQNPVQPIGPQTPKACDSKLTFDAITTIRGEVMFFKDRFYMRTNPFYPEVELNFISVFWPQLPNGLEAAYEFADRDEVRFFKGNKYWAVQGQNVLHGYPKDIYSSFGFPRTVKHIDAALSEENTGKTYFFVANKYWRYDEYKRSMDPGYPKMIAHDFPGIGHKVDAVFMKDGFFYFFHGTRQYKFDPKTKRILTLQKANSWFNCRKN
Type: biochemical
Protocol: The following Table I sets forth the relative rates of hydrolysis in the above spectrophotometric assay using the above thiopeptolides as substrates in comparison to the rates of hydrolysis assayed by High Performance Liquid Chromatography (HPLC) of two commercially available substrates for collagenase and two other substrates described in copending Application Ser. No. 450,318, cited hereinbefore.

Compound | Relative Rate (of hydrolysis)
CCOC(=O)CNC(=O)[C@H](C)NC(=O)[C@H](CC(C)C)NC(=O)CNC(=O)[C@H](CC(C)C)NC(=O)[C@@H]1CCCN1C(C)=O [Ac--Pro--Leu--Gly--Leu--Ala--Gly--OC2 H5] (Ac-PLGLAG-OEt) | 110
CCOC(=O)CNC(=O)[C@H](CC(C)C)NC(=O)[C@H](CC(C)C)NC(=O)CNC(=O)[C@H](CC(C)C)NC(=O)[C@@H]1CCCN1C(C)=O [Ac--Pro--Leu--Gly--Leu--Leu--Gly--OC2 H5] (Ac-PLGLLG-OEt) | 250
CC[C@H](C)[C@H](NC(=O)CNC(=O)[C@H](CCC(N)=O)NC(=O)[C@@H]1CCCN1c1ccc([N+](=O)[O-])cc1[N+](=O)[O-])C(=O)N[C@@H](C)C(=O)NCC(=O)N[C@@H](CCC(N)=O)C(=O)N[C@H](CCCNC(=N)N)C(=O)O [DNP-Pro-Gln-Gly-Ile-Ala-Gly-Gln-D-Arg-OH] (Dnp-PQGIAGQ[dR]-OH) | 5
CC[C@H](C)[C@H](NC(=O)CNC(=O)[C@H](CC(C)C)NC(=O)[C@@H]1CCCN1c1ccc([N+](=O)[O-])cc1[N+](=O)[O-])C(=O)N[C@@H](C)C(=O)NCC(=O)N[C@@H](CCCNC(=N)N)C(N)=O [DNP-Pro-Leu-Gly-Ile-Ala-Gly-Arg-NH2] (Dnp-PLGIAGR-NH2) | 25
